Assay results as given in PMC5513037, “Examining the influence of specificity ligands and ATP-competitive ligands on the overall effectiveness of bivalent kinase inhibitors” (Proteome Science, 2017).
pIC50: −log10 of the molar value.

Legend:
Experiment in all cases: KAM-matrix competition in K562 lysate;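 for 0.001 uM KAM: median log10 fold change of treatment over DMSO control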;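 for 0.01 uM KAM: median log10 fold change of treatment over DMSO control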;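 for 0.1 uM KAM: median log10 fold change of treatment over DMSO control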;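 for 1 uM KAM: median log10 fold change of treatment over DMSO control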;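 for 10 uM KAM: median log10 fold change of treatment over DMSO control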
Assay type in all cases: binding
[1] = biological target: T1, PRKD3 (Homo sapiens, UniProt O94806)
T1 construct: endogenous in cells; host or cells: K562
T1 sequence (O94806 1-890): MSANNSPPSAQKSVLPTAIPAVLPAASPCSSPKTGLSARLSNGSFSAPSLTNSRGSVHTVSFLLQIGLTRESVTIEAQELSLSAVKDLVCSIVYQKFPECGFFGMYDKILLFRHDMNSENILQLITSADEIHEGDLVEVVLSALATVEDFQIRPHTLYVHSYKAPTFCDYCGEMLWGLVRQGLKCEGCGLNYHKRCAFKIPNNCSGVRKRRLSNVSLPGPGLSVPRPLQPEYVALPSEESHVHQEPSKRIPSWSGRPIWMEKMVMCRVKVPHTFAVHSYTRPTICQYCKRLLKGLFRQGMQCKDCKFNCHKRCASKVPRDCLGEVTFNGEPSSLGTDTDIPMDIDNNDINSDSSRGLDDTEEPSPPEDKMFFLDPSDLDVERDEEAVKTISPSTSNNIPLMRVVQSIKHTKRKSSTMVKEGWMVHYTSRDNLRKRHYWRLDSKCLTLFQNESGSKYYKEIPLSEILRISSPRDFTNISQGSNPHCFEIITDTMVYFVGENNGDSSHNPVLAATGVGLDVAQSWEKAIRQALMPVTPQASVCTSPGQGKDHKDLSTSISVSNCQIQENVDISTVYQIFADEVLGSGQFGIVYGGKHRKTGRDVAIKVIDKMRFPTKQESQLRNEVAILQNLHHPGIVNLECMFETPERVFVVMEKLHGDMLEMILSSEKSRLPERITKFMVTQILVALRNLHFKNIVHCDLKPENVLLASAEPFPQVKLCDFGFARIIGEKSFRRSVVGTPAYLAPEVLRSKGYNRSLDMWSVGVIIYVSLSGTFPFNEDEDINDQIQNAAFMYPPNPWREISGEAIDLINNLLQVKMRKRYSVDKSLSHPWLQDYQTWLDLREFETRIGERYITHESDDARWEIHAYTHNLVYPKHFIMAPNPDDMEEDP
Description: (§1) Supplement 12953_2017_125_MOESM1_ESM.zip/MS_Supp Info.xlsx, sheet "KAM" | column: 10 uM KAM; 1 uM KAM; 0.1 uM KAM; 0.01 uM KAM; 0.001 uM KAM; RB50

[2] = biological target: T2, CDK17 (Homo sapiens, UniProt Q00537);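 for 0.001 uM KAM: median log10 fold change of treatment over DMSO control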;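 for 0.01 uM KAM: median log10 fold change of treatment over DMSO control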;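 for 0.1 uM KAM: median log10 fold change of treatment over DMSO control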;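 for 1 uM KAM: median log10 fold change of treatment over DMSO control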;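 for 10 uM KAM: median log10 fold change of treatment over DMSO control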
T2 construct: endogenous in cells; host or cells: K562 cell lysate
Description: as §1

[3] = biological target: T3, PRKAA1 (Homo sapiens, UniProt Q13131)
T3 construct: endogenous in cells; host or cells: K562
Description: as §1

[4] = biological target: T4, JAK2 (Homo sapiens, UniProt O60674)
T4 construct: endogenous in cells; host or cells: K562
Description: as §1

[5] = biological target: T5, MARK4 (Homo sapiens, UniProt Q96L34)
T5 construct: K562 cell pellets were thawed on ice and resuspended in cold Lysis buffer; endogenous in cells; host or cells: K562
T5 sequence (Q96L34 1-752): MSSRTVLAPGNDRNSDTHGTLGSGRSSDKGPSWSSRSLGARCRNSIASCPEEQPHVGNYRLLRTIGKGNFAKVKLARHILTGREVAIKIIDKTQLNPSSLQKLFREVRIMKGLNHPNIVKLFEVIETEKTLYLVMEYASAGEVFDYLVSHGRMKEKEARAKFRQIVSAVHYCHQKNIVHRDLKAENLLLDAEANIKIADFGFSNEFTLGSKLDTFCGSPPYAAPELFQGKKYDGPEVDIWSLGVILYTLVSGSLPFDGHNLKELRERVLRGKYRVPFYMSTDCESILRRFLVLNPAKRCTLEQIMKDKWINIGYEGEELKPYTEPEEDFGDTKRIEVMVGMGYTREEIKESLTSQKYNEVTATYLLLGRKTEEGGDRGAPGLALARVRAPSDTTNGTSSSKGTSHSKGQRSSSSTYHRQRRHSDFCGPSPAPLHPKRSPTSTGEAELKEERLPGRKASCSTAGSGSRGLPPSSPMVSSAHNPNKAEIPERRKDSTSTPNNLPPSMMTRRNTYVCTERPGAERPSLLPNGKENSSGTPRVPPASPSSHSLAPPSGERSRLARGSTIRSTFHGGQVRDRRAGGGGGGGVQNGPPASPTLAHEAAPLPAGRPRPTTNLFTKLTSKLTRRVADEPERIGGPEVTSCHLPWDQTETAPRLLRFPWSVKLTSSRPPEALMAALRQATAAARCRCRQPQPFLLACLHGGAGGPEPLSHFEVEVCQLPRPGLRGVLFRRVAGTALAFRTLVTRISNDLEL
Description: as §1

[6] = biological target: T6, MAP2K3 (Homo sapiens, UniProt P46734);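 for 0.001 uM KAM: median log10 fold change of treatment over DMSO control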;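 for 0.01 uM KAM: median log10 fold change of treatment over DMSO control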;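 for 0.1 uM KAM: median log10 fold change of treatment over DMSO control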;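 for 1 uM KAM: median log10 fold change of treatment over DMSO control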;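 for 10 uM KAM: median log10 fold change of treatment over DMSO control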
T6 construct: endogenous in cells; host or cells: K562 cell lysate
T6 sequence (P46734 1-347): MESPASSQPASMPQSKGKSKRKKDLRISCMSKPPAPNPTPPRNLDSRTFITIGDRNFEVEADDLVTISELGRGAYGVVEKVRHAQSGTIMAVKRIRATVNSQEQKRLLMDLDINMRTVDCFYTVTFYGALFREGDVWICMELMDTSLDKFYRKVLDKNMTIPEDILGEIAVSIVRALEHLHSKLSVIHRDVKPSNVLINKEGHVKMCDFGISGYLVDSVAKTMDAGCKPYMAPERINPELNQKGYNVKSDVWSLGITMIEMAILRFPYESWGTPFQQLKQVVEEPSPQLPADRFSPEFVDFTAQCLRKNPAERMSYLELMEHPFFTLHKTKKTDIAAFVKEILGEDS
Description: as §1

[7] = read-out: RB50 (the source's name)
[8] = KAM 0.001-10 uM, read-out: RB50 (the source's name)

T4 sequence (O60674 whole entry): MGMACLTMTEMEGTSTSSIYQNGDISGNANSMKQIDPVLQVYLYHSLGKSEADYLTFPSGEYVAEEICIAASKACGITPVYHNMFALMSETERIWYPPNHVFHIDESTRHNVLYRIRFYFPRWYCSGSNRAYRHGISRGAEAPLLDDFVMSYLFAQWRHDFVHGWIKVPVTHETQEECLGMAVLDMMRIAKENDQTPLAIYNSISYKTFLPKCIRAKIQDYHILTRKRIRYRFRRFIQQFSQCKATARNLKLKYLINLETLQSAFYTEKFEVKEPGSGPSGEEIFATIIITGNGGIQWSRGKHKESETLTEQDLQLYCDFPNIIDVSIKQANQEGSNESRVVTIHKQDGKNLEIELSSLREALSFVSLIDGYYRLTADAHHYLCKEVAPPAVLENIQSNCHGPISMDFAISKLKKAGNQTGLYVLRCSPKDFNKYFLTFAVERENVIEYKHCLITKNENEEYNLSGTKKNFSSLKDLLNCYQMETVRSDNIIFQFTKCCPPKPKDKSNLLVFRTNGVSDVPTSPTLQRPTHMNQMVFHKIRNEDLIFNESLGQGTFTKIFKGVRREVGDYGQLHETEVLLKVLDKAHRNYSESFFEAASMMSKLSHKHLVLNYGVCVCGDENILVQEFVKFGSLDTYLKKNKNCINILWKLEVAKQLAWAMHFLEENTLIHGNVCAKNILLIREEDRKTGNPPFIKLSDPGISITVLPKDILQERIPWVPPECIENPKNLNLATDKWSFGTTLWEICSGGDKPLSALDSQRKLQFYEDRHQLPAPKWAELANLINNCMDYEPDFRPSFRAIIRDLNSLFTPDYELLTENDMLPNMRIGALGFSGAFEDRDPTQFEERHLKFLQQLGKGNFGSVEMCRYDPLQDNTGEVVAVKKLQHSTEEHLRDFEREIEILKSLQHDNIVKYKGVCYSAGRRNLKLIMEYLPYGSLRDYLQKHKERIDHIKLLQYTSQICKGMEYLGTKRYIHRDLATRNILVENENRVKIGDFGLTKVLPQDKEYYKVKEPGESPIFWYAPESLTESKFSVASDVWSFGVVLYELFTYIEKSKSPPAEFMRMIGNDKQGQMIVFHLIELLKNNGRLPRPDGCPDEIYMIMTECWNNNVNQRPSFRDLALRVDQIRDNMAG
T2 sequence (Q00537 whole entry): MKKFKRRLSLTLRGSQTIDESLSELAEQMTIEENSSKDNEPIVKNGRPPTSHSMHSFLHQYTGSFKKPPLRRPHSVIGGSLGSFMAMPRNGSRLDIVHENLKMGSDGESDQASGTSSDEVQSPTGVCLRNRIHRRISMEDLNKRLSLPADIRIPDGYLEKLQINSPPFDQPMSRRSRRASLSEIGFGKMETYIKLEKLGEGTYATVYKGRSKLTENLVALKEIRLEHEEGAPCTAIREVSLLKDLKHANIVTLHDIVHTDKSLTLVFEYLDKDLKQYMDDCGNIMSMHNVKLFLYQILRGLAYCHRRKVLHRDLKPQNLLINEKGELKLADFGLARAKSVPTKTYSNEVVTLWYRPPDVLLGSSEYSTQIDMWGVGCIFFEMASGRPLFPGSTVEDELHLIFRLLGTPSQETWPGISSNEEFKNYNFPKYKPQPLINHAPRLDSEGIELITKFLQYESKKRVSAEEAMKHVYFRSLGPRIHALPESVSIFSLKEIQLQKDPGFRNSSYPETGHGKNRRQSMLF
T3 sequence (Q13131 whole entry): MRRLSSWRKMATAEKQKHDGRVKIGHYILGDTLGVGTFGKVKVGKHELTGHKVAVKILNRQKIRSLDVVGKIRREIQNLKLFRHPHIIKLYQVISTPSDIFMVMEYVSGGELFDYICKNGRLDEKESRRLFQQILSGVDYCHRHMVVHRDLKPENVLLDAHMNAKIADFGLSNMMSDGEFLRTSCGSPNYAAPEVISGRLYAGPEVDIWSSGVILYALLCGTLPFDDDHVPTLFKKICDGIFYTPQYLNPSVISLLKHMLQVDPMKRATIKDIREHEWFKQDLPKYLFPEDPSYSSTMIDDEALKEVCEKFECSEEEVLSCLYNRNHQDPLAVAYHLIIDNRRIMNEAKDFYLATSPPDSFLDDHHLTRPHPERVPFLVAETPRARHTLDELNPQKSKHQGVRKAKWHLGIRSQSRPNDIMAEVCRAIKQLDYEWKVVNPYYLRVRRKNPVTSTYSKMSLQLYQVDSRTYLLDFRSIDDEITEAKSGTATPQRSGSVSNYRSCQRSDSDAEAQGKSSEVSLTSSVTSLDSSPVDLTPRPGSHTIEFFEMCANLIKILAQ
T3 sequence (Q9Y478 2-270 partner limits assumed): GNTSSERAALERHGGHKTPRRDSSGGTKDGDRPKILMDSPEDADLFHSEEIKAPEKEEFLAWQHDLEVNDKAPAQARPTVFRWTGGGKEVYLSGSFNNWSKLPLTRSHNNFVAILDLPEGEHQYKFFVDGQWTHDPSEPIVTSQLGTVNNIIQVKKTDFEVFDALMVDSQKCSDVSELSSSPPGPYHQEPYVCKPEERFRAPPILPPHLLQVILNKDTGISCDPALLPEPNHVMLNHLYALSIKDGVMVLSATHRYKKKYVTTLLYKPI
T3 sequence (P54619 whole entry partner): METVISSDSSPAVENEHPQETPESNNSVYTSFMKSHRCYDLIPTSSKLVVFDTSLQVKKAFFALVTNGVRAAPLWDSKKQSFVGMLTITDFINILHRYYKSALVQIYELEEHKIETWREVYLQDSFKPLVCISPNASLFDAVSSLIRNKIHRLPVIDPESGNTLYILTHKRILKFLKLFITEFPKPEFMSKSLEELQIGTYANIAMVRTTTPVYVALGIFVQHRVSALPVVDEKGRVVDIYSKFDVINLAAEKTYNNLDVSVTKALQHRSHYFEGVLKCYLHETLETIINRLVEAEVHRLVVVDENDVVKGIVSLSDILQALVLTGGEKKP

N#CCc1ccc(Nc2nc(NCCCN)cc(Nc3cc(C4CC4)[nH]n3)n2)cc1 [KAM]
median Log10 fold change ([1]; 0.001 uM KAM): -0.02816 | median Log10 fold change ([1]; 0.01 uM KAM): -0.02551 | median Log10 fold change ([1]; 0.1 uM KAM): -0.171 | median Log10 fold change ([1]; 1 uM KAM): -0.366 | median Log10 fold change ([1]; 10 uM KAM): -0.539 | pIC50 [1, 7]: 6.20 | pIC50 [2, 8]: < 5.00 | 0.001 uM KAM ([2]; relative to 0 uM KAM = 0): -0.02399 | 0.01 uM KAM ([2]; relative to 0 uM KAM = 0): -0.01557 | 0.1 uM KAM ([2]; relative to 0 uM KAM = 0): -0.06864 | 1 uM KAM ([2]; relative to 0 uM KAM = 0): -0.1892 | 10 uM KAM ([2]; relative to 0 uM KAM = 0): -0.2802 | median Log10 fold change ([3]; 0.001 uM KAM): 0.006818 | median Log10 fold change ([3]; 0.01 uM KAM): -0.02218 | median Log10 fold change ([3]; 0.1 uM KAM): -0.1974 | median Log10 fold change ([3]; 1 uM KAM): -0.5073 | median Log10 fold change ([3]; 10 uM KAM): -0.6565 | pIC50 [3, 7]: 6.55 | median Log10 fold change ([4]; 0.001 uM KAM): -0.002638 | median Log10 fold change ([4]; 0.01 uM KAM): -0.00181 | median Log10 fold change ([4]; 0.1 uM KAM): -0.159 | median Log10 fold change ([4]; 1 uM KAM): -0.3349 | median Log10 fold change ([4]; 10 uM KAM): -0.4311 | pIC50 [4, 7]: 6.04 | median Log10 fold change ([5]; 0.001 uM KAM): -0.09809 | median Log10 fold change ([5]; 0.01 uM KAM): -0.06359 | median Log10 fold change ([5]; 0.1 uM KAM): -0.2055 | median Log10 fold change ([5]; 1 uM KAM): -0.3566 | median Log10 fold change ([5]; 10 uM KAM): -0.4457 | pIC50 [5, 7]: 6.22 | pIC50 [6, 8]: < 5.00 | 0.001 uM KAM ([6]; relative to 0 uM KAM = 0): 0.005145 | 0.01 uM KAM ([6]; relative to 0 uM KAM = 0): -0.01205 | 0.1 uM KAM ([6]; relative to 0 uM KAM = 0): -0.0928 | 1 uM KAM ([6]; relative to 0 uM KAM = 0): -0.1584 | 10 uM KAM ([6]; relative to 0 uM KAM = 0): -0.2828
